US12383545B1, “Treatment of migraine” (priority 2018, dated 2025)

What was measured:
[1] = test system: participants with episodic migraine; assay: Study B: AIM-D PDA and PI domain scores over 52 weeks; format: in vivo, human; settings: atogepant 60 mg, mITT Population
Text: The Activity in Migraine Diary (AIM-D) evaluates the impact of migraine on the performance of daily activities and physical impairment using an electronic daily diary. In particular, the AIM-D is comprised of two domains that evaluate Performance of Daily Activities (PDA) and Physical Impairment (PI). Assessed items for the AIM-D PDA domain include household chores, errands, leisure activities at home, social or leisure activities outside the home, strenuous physical activities, concentration, and thinking clearly. Assessed items for the AIM-D PI Domain include walking, moving one's body, bending forward, and moving one's head. Response options for each item range from “not difficult at all” to “I could not do it at all” on a 6-point rating scale. The AIM-D domain scores are scaled from 0-100, with higher scores indicating greater impact of migraine, and reductions from baseline in scores indicate improvement. See Cala et al., The Activity Impairment in Migraine-Diary (AIM-D): A Novel Migraine-Specific Patient-Reported Outcome Measure to Assess Functioning Based on Activity Impairment in Episodic and Chronic Migraine Patients, MTIS2018-005 (Sep. 5, 2018).
The negative change scores with confidence intervals that exclude 0 indicate a significant reduction in impairment due to migraine in PDA and PI.
Change scores with confidence intervals excluding zero were present at each time point assessed, indicating significant reduction in impairment due to migraine during the 52-week trial.

ALT or AST = assay: Example 5: postbaseline hepatic laboratory parameter values of clinical interest; format: in vivo, human; settings: safety population
Description: In a multicenter, randomized, double-blind, placebo-controlled, parallel-group study designed to evaluate the efficacy, safety, and tolerability of multiple doses and doses regimens of atogepant for the prevention of migraine. The patients were randomized (2:1:2:1:2:1) to 1 of 6 treatment groups: placebo, atogepant 10 mg QD, atogepant 30 mg QD, atogepant 30 mg BID, atogepant 60 mg QD, and atogepant 60 mg BID.
A total of 834 patients were randomized to double-blind treatment (ITT population), and 825 patients took at least 1 dose of double-blind IP (safety population). […] The primary efficacy variable was the change from baseline in mean monthly migraine/probable migraine headache days across the 12-week treatment period. The secondary efficacy variables were the change from baseline in mean monthly headache days across the 12-week treatment period, proportion of patients with at least a 50% reduction in mean monthly migraine/probable migraine headache days across the 12-week treatment period, and the change from baseline in mean monthly acute medication use days across the 12-week treatment period.

[2] = Atogepant 10 mg QD (N = 93), same day

C[C@@H]1[C@H](c2c(F)ccc(F)c2F)C[C@H](NC(=O)c2cnc3c(c2)C[C@@]2(C3)C(=O)Nc3ncccc32)C(=O)N1CC(F)(F)F [atogepant]
Change from Baseline in AIM-D Monthly PDA Domain Score, LS Mean Δ from baseline ([1]; Weeks 1-4, MMRM): −7.61
Change from Baseline in AIM-D Monthly PI Domain Score, LS Mean Δ from baseline ([1]; Weeks 1-4, MMRM): −5.56
Change from Baseline in AIM-D Monthly PDA Domain Score, LS Mean Δ from baseline ([1]; Weeks 5-8): −8.16
Change from Baseline in AIM-D Monthly PI Domain Score, LS Mean Δ from baseline ([1]; Weeks 5-8): −5.82
Change from Baseline in AIM-D Monthly PDA Domain Score, LS Mean Δ from baseline ([1]; Weeks 9-12): −8.53
Change from Baseline in AIM-D Monthly PI Domain Score, LS Mean Δ from baseline ([1]; Weeks 9-12): −6.13
Change from Baseline in AIM-D Monthly PDA Domain Score, LS Mean Δ from baseline ([1]; Weeks 13-16): −8.66
Change from Baseline in AIM-D Monthly PI Domain Score, LS Mean Δ from baseline ([1]; Weeks 13-16): −6.22
Change from Baseline in AIM-D Monthly PDA Domain Score, LS Mean Δ from baseline ([1]; Weeks 17-20): −9.02
Change from Baseline in AIM-D Monthly PI Domain Score, LS Mean Δ from baseline ([1]; Weeks 17-20): −6.38
Change from Baseline in AIM-D Monthly PDA Domain Score, LS Mean Δ from baseline ([1]; Weeks 21-24): −9.11
Change from Baseline in AIM-D Monthly PI Domain Score, LS Mean Δ from baseline ([1]; Weeks 21-24): −6.43
Change from Baseline in AIM-D Monthly PDA Domain Score, LS Mean Δ from baseline ([1]; Weeks 25-28): −9.16
Change from Baseline in AIM-D Monthly PI Domain Score, LS Mean Δ from baseline ([1]; Weeks 25-28): −6.40
Change from Baseline in AIM-D Monthly PDA Domain Score, LS Mean Δ from baseline ([1]; Weeks 29-32): −9.22
Change from Baseline in AIM-D Monthly PI Domain Score, LS Mean Δ from baseline ([1]; Weeks 29-32): −6.51
Change from Baseline in AIM-D Monthly PDA Domain Score, LS Mean Δ from baseline ([1]; Weeks 33-36): −9.61
Change from Baseline in AIM-D Monthly PI Domain Score, LS Mean Δ from baseline ([1]; Weeks 33-36): −6.94
Change from Baseline in AIM-D Monthly PDA Domain Score, LS Mean Δ from baseline ([1]; Weeks 37-40): −9.61
Change from Baseline in AIM-D Monthly PI Domain Score, LS Mean Δ from baseline ([1]; Weeks 37-40): −6.93
Change from Baseline in AIM-D Monthly PDA Domain Score, LS Mean Δ from baseline ([1]; Weeks 41-44): −9.77
Change from Baseline in AIM-D Monthly PI Domain Score, LS Mean Δ from baseline ([1]; Weeks 41-44): −7.01
Change from Baseline in AIM-D Monthly PDA Domain Score, LS Mean Δ from baseline ([1]; Weeks 45-48): −9.79
Change from Baseline in AIM-D Monthly PI Domain Score, LS Mean Δ from baseline ([1]; Weeks 45-48): −7.02
Change from Baseline in AIM-D Monthly PDA Domain Score, LS Mean Δ from baseline ([1]; Weeks 49-52, MMRM): −10.17
Change from Baseline in AIM-D Monthly PI Domain Score, LS Mean Δ from baseline ([1]; Weeks 49-52, MMRM): −7.20
Participants with postbaseline ALT or AST (U/L) >=1 * ULN, (%) (ALT or AST; Atogepant 10 mg QD (N = 93)): (18.5) %
Participants with postbaseline ALT or AST (U/L) >=1 * ULN, n/N1 (ALT or AST; Atogepant 10 mg QD (N = 93)): 17/92
Participants with postbaseline ALT or AST (U/L) >=1.5 * ULN, (%) (ALT or AST; Atogepant 10 mg QD (N = 93)): (4.3) %
Participants with postbaseline ALT or AST (U/L) >=1.5 * ULN, n/N1 (ALT or AST; Atogepant 10 mg QD (N = 93)): 4/92
Participants with postbaseline ALT or AST (U/L) >=2 * ULN, (%) (ALT or AST; Atogepant 10 mg QD (N = 93)): (4.3) %
Participants with postbaseline ALT or AST (U/L) >=2 * ULN, n/N1 (ALT or AST; Atogepant 10 mg QD (N = 93)): 4/92
Participants with postbaseline ALT or AST (U/L) >=3 * ULN, (%) (ALT or AST; Atogepant 10 mg QD (N = 93)): (2.2) %
Participants with postbaseline ALT or AST (U/L) >=3 * ULN, n/N1 (ALT or AST; Atogepant 10 mg QD (N = 93)): 2/92
Participants with postbaseline ALT or AST (U/L) >=5 * ULN, n/N1 (ALT or AST; Atogepant 10 mg QD (N = 93)): 0
Participants with postbaseline ALT or AST (U/L) >=10 * ULN, n/N1 (ALT or AST; Atogepant 10 mg QD (N = 93)): 0
Participants with postbaseline ALT or AST (U/L) >=20 * ULN, n/N1 (ALT or AST; Atogepant 10 mg QD (N = 93)): 0
Participants with Concurrent Elevations ALT or AST >=3 * ULN AND Bilirubin Total >=1.5 * ULN, n/N1 (ALT or AST; [2]): 0
Participants with Concurrent Elevations ALT or AST >=3 * ULN AND Bilirubin Total >=2 * ULN, n/N1 (ALT or AST; [2]): 0
Participants with Potential Hy's Law ALT or AST >=3 * ULN AND Bilirubin Total >=2 * ULN AND ALP <2 * ULN, n/N1 (ALT or AST; [2]): 0
Participants with postbaseline ALT or AST (U/L) >=1 * ULN, (%) (ALT or AST; Atogepant 30 mg BID (N = 86)): (13.1) %
Participants with postbaseline ALT or AST (U/L) >=1 * ULN, n/N1 (ALT or AST; Atogepant 30 mg BID (N = 86)): 11/84
Participants with postbaseline ALT or AST (U/L) >=1.5 * ULN, (%) (ALT or AST; Atogepant 30 mg BID (N = 86)): (2.4) %
Participants with postbaseline ALT or AST (U/L) >=1.5 * ULN, n/N1 (ALT or AST; Atogepant 30 mg BID (N = 86)): 2/84
Participants with postbaseline ALT or AST (U/L) >=2 * ULN, (%) (ALT or AST; Atogepant 30 mg BID (N = 86)): (2.4) %
Participants with postbaseline ALT or AST (U/L) >=2 * ULN, n/N1 (ALT or AST; Atogepant 30 mg BID (N = 86)): 2/84
Participants with postbaseline ALT or AST (U/L) >=3 * ULN, (%) (ALT or AST; Atogepant 30 mg BID (N = 86)): (1.2) %
Participants with postbaseline ALT or AST (U/L) >=3 * ULN, n/N1 (ALT or AST; Atogepant 30 mg BID (N = 86)): 1/84
